Experimental findings from patent US20230117034A1, “PYRAZOLOTRIAZINES” (Bayer Aktiengesellschaft, priority 2019, published 2023) are described below.

pIC50: −log10 of the molar value.

Common to all, as to type: cell-based
Assay [1] relates to CAL-120, human breast adenocarcinoma cells. The assay is described as follows: Proliferation assay CAL-120 (crystal violet, 4 days). The conditions noted are these: Homo sapiens, CAL-120, 96 h, CAL-120 cells, median, read-out: Prolif-CAL-120, IC50-[mol/l] (median). In short, it runs like this:
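Cells seeded at 4,000/well in medium with 10% FCS; after 24 h, compounds added at 0.01-10 µmol/L (0.1% DMSO) for 4 days. Glutaraldehyde-fixed, crystal violet-stained, absorbance at 595 nm normalized to zero-point plate (0%) and untreated cells (100%); IC50 by 4-parameter fit.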

Assay [2] concerns the target T1, CDK12 (nuclear staining in CAL-120 cells) (Homo sapiens, UniProt Q9NYV4).
T1 construct: endogenous in cells; host or cells: CAL-120 human breast cancer cells (DSMZ ACC 459)
The assay is described as follows: CDK12 nuclear protein level: immunofluorescence/high content analysis (CAL-120). The conditions noted are these: for DC50: CAL-120 cells, 24 h, immunofluorescence, 50% reduction of nuclear CDK12 staining intensity, median, read-out: CDK12 degradation IF, DC50- [mol/l] (median); for (IC50 CDK12 high ATP) to (Degradation DC50 CDK12) ratio: ratio of IC50 CDK12 high ATP kinase assay to DC50 CDK12 degradation (IF, CAL-120). The gist of the method:
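CAL-120 cells were treated with compound for 24 h at 37 °C, fixed with PFA and immunostained for CDK12. Nuclear CDK12 intensity was quantified by automated image analysis and normalized to DMSO and control. DC50 is the concentration giving 50% reduction of nuclear staining.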

Assay [3] has as its target T2, CYCLIN K (nuclear staining in CAL-120 cells) (Homo sapiens, UniProt O75909).
T2 construct: endogenous in cells; host or cells: CAL-120 human breast cancer cells (DSMZ ACC 459)
The assay is described as follows: CYCLIN K nuclear protein level: immunofluorescence high content analysis (CAL-120). The settings on record: 24 h, 50% reduction of nuclear CCNK staining intensity, median, read-out: CYCLIN K degradation IF, DC50-[mol/l] (median). The gist of the method:
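CAL-120 breast cancer cells treated in dose-response for 24 h at 37 °C, PFA-fixed and immunostained for cyclin K with Hoechst counterstain. Confocal imaging quantified nuclear intensity; DC50 is the concentration giving 50% reduction of nuclear CCNK staining, normalized to DMSO and control.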

T1 sequence (Q9NYV4 whole entry): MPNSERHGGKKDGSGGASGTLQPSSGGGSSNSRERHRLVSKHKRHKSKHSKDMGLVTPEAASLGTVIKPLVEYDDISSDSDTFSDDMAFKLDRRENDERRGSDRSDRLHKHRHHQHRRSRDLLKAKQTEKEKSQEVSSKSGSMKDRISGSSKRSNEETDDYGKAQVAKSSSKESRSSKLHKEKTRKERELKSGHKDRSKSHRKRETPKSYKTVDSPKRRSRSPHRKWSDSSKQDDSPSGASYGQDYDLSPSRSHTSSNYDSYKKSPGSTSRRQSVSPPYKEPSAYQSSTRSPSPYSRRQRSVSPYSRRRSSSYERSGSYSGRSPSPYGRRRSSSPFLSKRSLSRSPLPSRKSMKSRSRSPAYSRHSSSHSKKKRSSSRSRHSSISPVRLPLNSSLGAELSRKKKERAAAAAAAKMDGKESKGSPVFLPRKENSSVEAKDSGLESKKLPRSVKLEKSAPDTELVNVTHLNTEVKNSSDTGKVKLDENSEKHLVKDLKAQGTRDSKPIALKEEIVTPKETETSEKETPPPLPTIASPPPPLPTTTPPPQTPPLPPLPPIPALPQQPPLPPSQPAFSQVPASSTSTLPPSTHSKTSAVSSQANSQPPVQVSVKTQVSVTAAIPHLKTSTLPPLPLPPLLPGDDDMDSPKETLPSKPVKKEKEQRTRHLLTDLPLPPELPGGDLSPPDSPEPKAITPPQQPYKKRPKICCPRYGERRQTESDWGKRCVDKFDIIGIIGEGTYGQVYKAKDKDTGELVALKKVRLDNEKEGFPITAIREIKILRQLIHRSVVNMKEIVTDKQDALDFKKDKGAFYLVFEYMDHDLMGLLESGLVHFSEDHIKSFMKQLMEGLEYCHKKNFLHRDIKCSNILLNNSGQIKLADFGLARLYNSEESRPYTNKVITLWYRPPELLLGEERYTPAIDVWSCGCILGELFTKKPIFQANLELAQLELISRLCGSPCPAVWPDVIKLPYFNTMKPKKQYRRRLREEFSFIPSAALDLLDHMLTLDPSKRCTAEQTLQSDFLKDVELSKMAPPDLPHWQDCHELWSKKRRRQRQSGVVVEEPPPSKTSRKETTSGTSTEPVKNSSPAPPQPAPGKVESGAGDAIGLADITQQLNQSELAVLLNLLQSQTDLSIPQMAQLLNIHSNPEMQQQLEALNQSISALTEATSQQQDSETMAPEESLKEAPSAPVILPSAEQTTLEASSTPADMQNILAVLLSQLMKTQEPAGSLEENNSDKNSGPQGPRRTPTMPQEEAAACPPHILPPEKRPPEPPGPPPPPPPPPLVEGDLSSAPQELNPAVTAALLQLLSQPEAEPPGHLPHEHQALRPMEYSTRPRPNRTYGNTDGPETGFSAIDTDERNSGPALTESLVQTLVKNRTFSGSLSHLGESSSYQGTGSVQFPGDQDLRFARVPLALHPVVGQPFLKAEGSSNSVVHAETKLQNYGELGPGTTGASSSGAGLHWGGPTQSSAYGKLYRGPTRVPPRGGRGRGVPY
T1 sequence (O75909 whole entry partner): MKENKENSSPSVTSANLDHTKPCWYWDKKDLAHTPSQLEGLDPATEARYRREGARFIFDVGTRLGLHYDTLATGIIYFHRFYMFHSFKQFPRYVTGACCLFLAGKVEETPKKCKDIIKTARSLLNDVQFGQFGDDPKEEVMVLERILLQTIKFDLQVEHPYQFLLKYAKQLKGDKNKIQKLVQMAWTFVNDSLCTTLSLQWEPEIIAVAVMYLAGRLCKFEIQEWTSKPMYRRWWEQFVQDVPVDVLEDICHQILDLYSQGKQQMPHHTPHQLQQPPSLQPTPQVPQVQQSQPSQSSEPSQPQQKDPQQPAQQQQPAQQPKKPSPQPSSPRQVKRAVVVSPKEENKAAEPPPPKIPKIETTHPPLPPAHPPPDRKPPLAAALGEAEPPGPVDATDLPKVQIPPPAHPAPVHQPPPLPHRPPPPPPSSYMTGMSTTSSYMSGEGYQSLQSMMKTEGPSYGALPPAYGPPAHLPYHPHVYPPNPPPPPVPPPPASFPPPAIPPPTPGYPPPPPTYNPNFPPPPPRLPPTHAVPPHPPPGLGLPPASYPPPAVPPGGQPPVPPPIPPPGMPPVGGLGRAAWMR
T2 sequence (O75909 whole entry): as the sequence (O75909 whole entry partner) above
T2 sequence (Q9NYV4 whole entry partner): as the sequence (Q9NYV4 whole entry) above

For `Clc1ccccc1-c1nnc(CNc2nc(N3CCOCC3)nc3c(Br)cnn23)[nH]1` [Example 69, 8-bromo-N-{[5-(2-chlorophenyl)-4H-1,2,4-triazol-3-yl]methyl}-2-(morpholin-4-yl)pyrazolo[1,5-a][1,3,5]triazin-4-amine], the pIC50 in assay [1] was 6.48. In addition, in assay [2], the DC50 turned out to be 84.5 nM and the “(IC50 CDK12 high ATP) to (Degradation DC50 CDK12) ratio” value is more than 68.
With `CC1(C)CN(c2nc(NCc3nnc(-c4ccccc4)[nH]3)n3ncc(Br)c3n2)CCO1` [Example 68, 8-bromo-2-(2,2-dimethylmorpholin-4-yl)-N-[(5-phenyl-4H-1,2,4-triazol-3-yl)methyl]pyrazolo[1,5-a][1,3,5]triazin-4-amine], the DC50 in assay [3] worked out at 2.85 nM. In addition, in assay [1], the pIC50 was 7.40. In assay [2], the DC50 was 13.3 nM and the “(IC50 CDK12 high ATP) to (Degradation DC50 CDK12) ratio” value came to 415.
For `Brc1cnn2c(NCc3nnc(-c4ccccc4)[nH]3)nc(N3CC4(COC4)C3)nc12` [Example 65, 8-bromo-2-(2-oxa-6-azaspiro[3.3]heptan-6-yl)-N-[(5-phenyl-4H-1,2,4-triazol-3-yl)methyl]pyrazolo[1,5-a][1,3,5]triazin-4-amine] the same measures were 16.4 nM, 8.00, 4.15 nM and 245.
Regarding `COc1cccc(-c2cnc(CNc3nc(N4CCOCC4)nc4c(Br)cnn34)[nH]2)c1` [Example 80, 8-bromo-N-{[5-(3-methoxyphenyl)-1H-imidazol-2-yl]methyl}-2-(morpholin-4-yl)pyrazolo[1,5-a][1,3,5]triazin-4-amine], the DC50 in assay [3] was 1.34 nM; in assay [2], 4.28 nM. The pIC50 in assay [1] is 7.85. For the same compound, the “(IC50 CDK12 high ATP) to (Degradation DC50 CDK12) ratio” value in assay [2] was 276.
Regarding `CC(C)c1cnn2c(NCc3nc4ccccc4[nH]3)nc(N3CCOC(C)(C)C3)nc12` [Example 12, N-[(1H-benzimidazol-2-yl)methyl]-2-(2,2-dimethylmorpholin-4-yl)-8-(propan-2-yl)pyrazolo[1,5-a][1,3,5]triazin-4-amine], in assay [2], the DC50 was 42.7 nM and the “(IC50 CDK12 high ATP) to (Degradation DC50 CDK12) ratio” value is listed as 399.
Turning to `CC(C)c1cnn2c(NCc3nc4ccccc4[nH]3)nc(N3CCN(C)CC3)nc12` [Example 2, N-[(1H-benzimidazol-2-yl)methyl]-2-(4-methylpiperazin-1-yl)-8-(propan-2-yl)pyrazolo[1,5-a][1,3,5]triazin-4-amine], in assay [3], the DC50 was 5.04 nM. Moreover, the pIC50 in assay [1] is 7.51. In assay [2], the DC50 was found to be 8.46 nM and the “(IC50 CDK12 high ATP) to (Degradation DC50 CDK12) ratio” value is recorded as more than 2365.
For `FC(F)(F)c1ccccc1-c1cnc(CNc2nc(N3CCOCC3)nc3c(Br)cnn23)[nH]1` [Example 88, 8-bromo-2-(morpholin-4-yl)-N-({5-[2-(trifluoromethyl)phenyl]-1H-imidazol-2-yl}methyl)pyrazolo[1,5-a][1,3,5]triazin-4-amine] the same measures were 1.16 nM, 7.85, 16.3 nM and 84.
As to `CC(C)c1cnn2c(NCc3nc4ccccc4[nH]3)nc(N(C)C)nc12` [Example 3, N^4-[(1H-benzimidazol-2-yl)methyl]-N^2,N^2-dimethyl-8-(propan-2-yl)pyrazolo[1,5-a][1,3,5]triazine-2,4-diamine], in assay [2], the DC50 stood at 94.5 nM and the “(IC50 CDK12 high ATP) to (Degradation DC50 CDK12) ratio” value is more than 212.
`Brc1cnn2c(NCc3nnc(-c4ccccc4)[nH]3)nc(N3CCCC3)nc12` [Example 64, 8-bromo-N-[(5-phenyl-4H-1,2,4-triazol-3-yl)methyl]-2-(pyrrolidin-1-yl)pyrazolo[1,5-a][1,3,5]triazin-4-amine]: the DC50 was 4.89 nM in assay [3] and 12.5 nM in assay [2]. The pIC50 in assay [1] is 7.44. Further, in assay [2], the “(IC50 CDK12 high ATP) to (Degradation DC50 CDK12) ratio” value is on record as 440.
For `OC[C@@H]1CCCCN1c1nc(NCc2nnc(-c3ccccc3)[nH]2)n2ncc(Br)c2n1` [Example 70, [(2S)-1-(8-bromo-4-{[(5-phenyl-4H-1,2,4-triazol-3-yl)methyl]amino}pyrazolo[1,5-a][1,3,5]triazin-2-yl)piperidin-2-yl]methanol] the same measures were 11.7 nM, 7.9 nM, 7.31 and 79.
Regarding `CN1CCN(c2nc(NCc3nc4cc(C(F)(F)F)ccc4[nH]3)n3ncc(C4CC4)c3n2)CC1` [Example 313, 8-cyclopropyl-2-(4-methylpiperazin-1-yl)-N-{[5-(trifluoromethyl)-1H-benzimidazol-2-yl]methyl}pyrazolo[1,5-a][1,3,5]triazin-4-amine], in assay [3], the DC50 is 1.57 nM. The pIC50 in assay [1] was 8.02. For the same compound, in assay [2], the DC50 worked out at 26.8 nM and the “(IC50 CDK12 high ATP) to (Degradation DC50 CDK12) ratio” value is listed as 679.
On the same counts, the results for `Fc1cccc(-c2cnc(CNc3nc(N4CCOCC4)nc4c(Br)cnn34)[nH]2)c1` [Example 79, 8-bromo-N-{[5-(3-fluorophenyl)-1H-imidazol-2-yl]methyl}-2-(morpholin-4-yl)pyrazolo[1,5-a][1,3,5]triazin-4-amine] are 0.469 nM, 8.33, 1.23 nM and 460.
For `COC1CCN(c2nc(NCc3nnc(-c4ccccc4)[nH]3)n3ncc(Br)c3n2)CC1` [Example 76, 8-bromo-2-(4-methoxypiperidin-1-yl)-N-[(5-phenyl-4H-1,2,4-triazol-3-yl)methyl]pyrazolo[1,5-a][1,3,5]triazin-4-amine] the same measures were 8.06 nM, 6.96, 12.1 nM and more than 440.
On the same counts, the results for `Brc1cnn2c(NCc3ncc(-c4cccnc4)[nH]3)nc(N3CCOCC3)nc12` [Example 84, 8-bromo-2-(morpholin-4-yl)-N-{[5-(pyridin-3-yl)-1H-imidazol-2-yl]methyl}pyrazolo[1,5-a][1,3,5]triazin-4-amine] are 11.8 nM, 6.97, 21.2 nM and 98.
As for `CN1CCN(c2nc(NCc3nc4cc(Cl)c(Cl)cc4[nH]3)n3ncc(C4CC4)c3n2)CC1` [Example 305, 8-cyclopropyl-N-[(5,6-dichloro-1H-benzimidazol-2-yl)methyl]-2-(4-methylpiperazin-1-yl)pyrazolo[1,5-a][1,3,5]triazin-4-amine], the DC50 in assay [3] came to 0.972 nM. Moreover, in assay [1], the pIC50 is 8.35.
Turning to `COC(=O)C1CCN(c2nc(NCc3nnc(-c4ccccc4)[nH]3)n3ncc(Br)c3n2)CC1` [Example 77, methyl 1-(8-bromo-4-{[(5-phenyl-4H-1,2,4-triazol-3-yl)methyl]amino}pyrazolo[1,5-a][1,3,5]triazin-2-yl)piperidine-4-carboxylate], the pIC50 in assay [1] is 6.47. Moreover, in assay [2], the DC50 is 116 nM and the “(IC50 CDK12 high ATP) to (Degradation DC50 CDK12) ratio” value is 87.
With `CC(C)c1cnn2c(NCc3nc4ccccc4[nH]3)nc(N3CCOCC3)nc12` [Example 1, N-[(1H-benzimidazol-2-yl)methyl]-2-(morpholin-4-yl)-8-(propan-2-yl)pyrazolo[1,5-a][1,3,5]triazin-4-amine], in assay [3], the DC50 was 11.1 nM. In assay [2], the DC50 is 11.1 nM and the “(IC50 CDK12 high ATP) to (Degradation DC50 CDK12) ratio” value was found to be 537.
As for `FC(F)(F)Oc1ccccc1-c1nnc(CNc2nc(N3CCOCC3)nc3c(Br)cnn23)[nH]1` [Example 74, 8-bromo-2-(morpholin-4-yl)-N-({5-[2-(trifluoromethoxy)phenyl]-4H-1,2,4-triazol-3-yl}methyl)pyrazolo[1,5-a][1,3,5]triazin-4-amine], the pIC50 in assay [1] was 6.51. Further, in assay [2], the DC50 amounted to 57.4 nM.
Regarding `Fc1ccc2[nH]c(CNc3nc(N4CCOCC4)nc4c(-c5cnn(C(F)F)c5)cnn34)nc2c1F` [Example 422, N-[(4,5-difluoro-1H-benzimidazol-2-yl)methyl]-8-[1-(difluoromethyl)-1H-pyrazol-4-yl]-2-(morpholin-4-yl)pyrazolo[1,5-a][1,3,5]triazin-4-amine], the pIC50 in assay [1] was 8.16. Moreover, in assay [2], the DC50 was 6.81 nM and the “(IC50 CDK12 high ATP) to (Degradation DC50 CDK12) ratio” value came to 239.
`O[C@@H]1CCN(c2nc(NCc3nc4ccccc4[nH]3)n3ncc(Br)c3n2)C1` [Example 202, (3R)-1-(4-{[(1H-benzimidazol-2-yl)methyl]amino}-8-bromopyrazolo[1,5-a][1,3,5]triazin-2-yl)pyrrolidin-3-ol]: in assay [1], the pIC50 was 6.88. Also, in assay [2], the DC50 was determined as 31.8 nM and the “(IC50 CDK12 high ATP) to (Degradation DC50 CDK12) ratio” value was determined as 518.
